Assay: Safety and adverse events
Format: in vivo, human
Source text: On study blood tests included complete blood count (CBC) with differential and platelets; chemistry panel including sodium, potassium, creatinine, BUN, glucose, total protein, albumin, bilirubin (total), alkaline phosphatase, AST (SGOT), and ALT (SGPT), and lipid profile (HDL, LDL and triglycerides, cholesterol. […] Adverse event analysis was based on the percentage of patients who discontinued the study and the percentage of patients who discontinued the study possibly due to adverse events.

glatiramer acetate [Placebo + GA]
Fibrocystic disease on clinical exam - % (Breast): (5) % | Fibrocystic disease on clinical exam - no. (Breast): 4 | Mammogram with malignancy - no. (Breast): 0 | Breast adverse events, # of patients (Completed): [5] | Breast adverse events, number of events (Completed): 5 | Cardiovascular adverse events, # of patients (Completed): [8] | Cardiovascular adverse events, number of events (Completed): 8 | Extremity adverse events, # of patients (Completed): [21] | Extremity adverse events, number of events (Completed): 43 | GA related? adverse events, # of patients (Completed): [11] | GA related? adverse events, number of events (Completed): 22 | GI adverse events, # of patients (Completed): [15] | GI adverse events, number of events (Completed): 19 | GU adverse events, # of patients (Completed): [10] | GU adverse events, number of events (Completed): 17 | GYN adverse events, # of patients (Completed): [15] | GYN adverse events, number of events (Completed): 18 | General adverse events, # of patients (Completed): [26] | General adverse events, number of events (Completed): 48 | Head/Neck adverse events, # of patients (Completed): [26] | Head/Neck adverse events, number of events (Completed): 42 | Lymph adverse events, # of patients (Completed): [1] | Lymph adverse events, number of events (Completed): 1 | MRI related adverse events, # of patients (Completed): [2] | MRI related adverse events, number of events (Completed): 3 | Menses adverse events, # of patients (Completed): [10] | Menses adverse events, number of events (Completed): 14 | Mental adverse events, # of patients (Completed): [10] | Mental adverse events, number of events (Completed): 14 | Neurology adverse events, # of patients (Completed): [9] | Neurology adverse events, number of events (Completed): 13 | Respiratory adverse events, # of patients (Completed): [26] | Respiratory adverse events, number of events (Completed): 47 | Skeleton adverse events, # of patients (Completed): [1] | Skeleton adverse events, number of events (Completed): 2 | Skin adverse events, # of patients (Completed): [10] | Skin adverse events, number of events (Completed): 15 | Total adverse events, # of patients (Completed): [53] | Total adverse events, number of events (Completed): 331 | Cancer adverse events, # of patients (Discontinued): [1] | Cancer adverse events, number of events (Discontinued): 1 | Extremity adverse events, # of patients (Discontinued): [2] | Extremity adverse events, number of events (Discontinued): 4 | GA related? adverse events, # of patients (Discontinued): [4] | GA related? adverse events, number of events (Discontinued): 10 | GI adverse events, # of patients (Discontinued): [3] | GI adverse events, number of events (Discontinued): 3 | GU adverse events, # of patients (Discontinued): [3] | GU adverse events, number of events (Discontinued): 3 | GYN adverse events, # of patients (Discontinued): [3] | GYN adverse events, number of events (Discontinued): 3 | General adverse events, # of patients (Discontinued): [6] | General adverse events, number of events (Discontinued): 9 | Head/Neck adverse events, # of patients (Discontinued): [4] | Head/Neck adverse events, number of events (Discontinued): 9 | Lymph adverse events, # of patients (Discontinued): [1] | Lymph adverse events, number of events (Discontinued): 1 | Menses adverse events, # of patients (Discontinued): [2] | Menses adverse events, number of events (Discontinued): 3 | Mental adverse events, # of patients (Discontinued): [5] | Mental adverse events, number of events (Discontinued): 5 | Neurology adverse events, # of patients (Discontinued): [1] | Neurology adverse events, number of events (Discontinued): 1 | Respiratory adverse events, # of patients (Discontinued): [3] | Respiratory adverse events, number of events (Discontinued): 7 | Skin adverse events, # of patients (Discontinued): [2] | Skin adverse events, number of events (Discontinued): 2 | Total adverse events, # of patients (Discontinued): [13] | Total adverse events, number of events (Discontinued): 61 | Abnormal proliferation on biopsy - no. (Uterus): 0 | Endometrial biopsies performed - % (Uterus): (8) % | Endometrial biopsies performed - no. (Uterus): 6 | Endometrial thickness >8 mm (ultrasound) - % (Uterus): (36) % | Endometrial thickness >8 mm (ultrasound) - no. (Uterus): 27 | Fibroids (ultrasound) - % (Uterus): (11) % | Fibroids (ultrasound) - no. (Uterus): 8 | Adverse events leading to discontinuation - % (in vivo): (6%) | Adverse events leading to discontinuation - no. (in vivo): 5 | Any adverse event - % of pts (in vivo): 87% | Any adverse event - no of pts (in vivo): 67 | Any adverse event - no. of events (in vivo): 392 | Arm/leg numbness, tingling - % of pts (in vivo): 9% | Arm/leg numbness, tingling - no of pts (in vivo): 7 | Arm/leg numbness, tingling - no. of events (in vivo): 10 | Back pain - % of pts (in vivo): 6% | Back pain - no of pts (in vivo): 5 | Back pain - no. of events (in vivo): 5 | Copaxone injection area abnormalities - % of pts (in vivo): 18% | Copaxone injection area abnormalities - no of pts (in vivo): 14 | Copaxone injection area abnormalities - no. of events (in vivo): 30 | Depression/anxiety - % of pts (in vivo): 12% | Depression/anxiety - no of pts (in vivo): 9 | Depression/anxiety - no. of events (in vivo): 10 | Dizziness - % of pts (in vivo): 9% | Dizziness - no of pts (in vivo): 7 | Dizziness - no. of events (in vivo): 10 | Fatigue - % of pts (in vivo): 10% | Fatigue - no of pts (in vivo): 8 | Fatigue - no. of events (in vivo): 10 | Gastroenteritis - % of pts (in vivo): 4% | Gastroenteritis - no of pts (in vivo): 3 | Gastroenteritis - no. of events (in vivo): 4 | Headache - % of pts (in vivo): 14% | Headache - no of pts (in vivo): 11 | Headache - no. of events (in vivo): 12 | Heart palpitation - % of pts (in vivo): 5% | Heart palpitation - no of pts (in vivo): 4 | Heart palpitation - no. of events (in vivo): 4 | Insomnia - % of pts (in vivo): 5% | Insomnia - no of pts (in vivo): 4 | Insomnia - no. of events (in vivo): 4 | Irregular menses/spotting - % of pts (in vivo): 4% | Irregular menses/spotting - no of pts (in vivo): 3 | Irregular menses/spotting - no. of events (in vivo): 4 | Menstrual cramp - % of pts (in vivo): 5% | Menstrual cramp - no of pts (in vivo): 4 | Menstrual cramp - no. of events (in vivo): 5 | Menstrual flow amount increased - % of pts (in vivo): 8% | Menstrual flow amount increased - no of pts (in vivo): 6 | Menstrual flow amount increased - no. of events (in vivo): 8 | Nausea/vomiting - % of pts (in vivo): 6% | Nausea/vomiting - no of pts (in vivo): 5 | Nausea/vomiting - no. of events (in vivo): 5 | Severe adverse events - % of pts (in vivo): 13% | Severe adverse events - no of pts (in vivo): 10 | Severe adverse events - no. of events (in vivo): 12 | Shingles - % of pts (in vivo): 5% | Shingles - no of pts (in vivo): 4 | Shingles - no. of events (in vivo): 4 | Sinusitis - % of pts (in vivo): 13% | Sinusitis - no of pts (in vivo): 10 | Sinusitis - no. of events (in vivo): 14 | Upper respiratory infection - % of pts (in vivo): 34% | Upper respiratory infection - no of pts (in vivo): 26 | Upper respiratory infection - no. of events (in vivo): 38 | Urinary tract infection - % of pts (in vivo): 13% | Urinary tract infection - no of pts (in vivo): 10 | Urinary tract infection - no. of events (in vivo): 16 | Vaginal infection - % of pts (in vivo): 10% | Vaginal infection - no of pts (in vivo): 8 | Vaginal infection - no. of events (in vivo): 9 | Vision problem (blurry, double) - % of pts (in vivo): 9% | Vision problem (blurry, double) - no of pts (in vivo): 7 | Vision problem (blurry, double) - no. of events (in vivo): 7 | Accidently took other's drug - % of pts (severe adverse event): [1, 1%] | Accidently took other's drug - no of pts (severe adverse event): [1, 1%] | Accidently took other's drug - no. of events (severe adverse event): 1 | Acute appendicitis - % of pts (severe adverse event): [1, 1%] | Acute appendicitis - no of pts (severe adverse event): [1, 1%] | Acute appendicitis - no. of events (severe adverse event): 1 | B-cell lymphoma - % of pts (severe adverse event): [1, 1%] | B-cell lymphoma - no of pts (severe adverse event): [1, 1%] | B-cell lymphoma - no. of events (severe adverse event): 1 | Car accident related body numbness - % of pts (severe adverse event): [1, 1%] | Car accident related body numbness - no of pts (severe adverse event): [1, 1%] | Car accident related body numbness - no. of events (severe adverse event): 1 | Heart failure - no. of events (severe adverse event): 0 | MS relapse - % of pts (severe adverse event): 6% | MS relapse - no of pts (severe adverse event): 5 | MS relapse - no. of events (severe adverse event): 6 | Migraine headache related eye pain - no. of events (severe adverse event): 0 | Pace maker implantation - no. of events (severe adverse event): 0 | Pregnancy termination - no. of events (severe adverse event): 0 | Pyelonephritis - no. of events (severe adverse event): 0 | Right knee replacement - % of pts (severe adverse event): [1, 1%] | Right knee replacement - no of pts (severe adverse event): [1, 1%] | Right knee replacement - no. of events (severe adverse event): 1 | Systolic heart failure - no. of events (severe adverse event): 0 | UTI - % of pts (severe adverse event): [1, 1%] | UTI - no of pts (severe adverse event): [1, 1%] | UTI - no. of events (severe adverse event): 1

Reference: patent US10406169B2, “Methods of monitoring estriol therapy” (The Regents of the University of California, priority 2015, dated 2019)
